Test results: patent US20200218874A1, “A LABEL-FREE METHOD AND SYSTEM FOR MEASURING DRUG RESPONSE KINETICS OF THREE-DIMENSIONAL CELLULAR STRUCTURES” (AGENCY FOR SCIENCE, TECHNOLOGY AND RESEARCH, priority 2017, published 2020)
“Also recorded” adds a separate entry of the source.

Key:
[1] = system: patient-derived tumour spheroids (head and neck cancer patient); assay: Label-free image-based drug response (LaFOS) of 3D tumour spheroids over time; assay type: cell-based, human; conditions: for response of tumour spheroids over time (LaFOS time-course): 24, 48 and 72 hours after treatment, 1 μM
Method: The examples used in this disclosure were generated by seeding 5000 cells into each well of Corning® 384 Well Black Clear Round Bottom Ultra-Low Attachment Spheroid Microplates. The assay plates were incubated at 37° C., 5% CO2 over 3 days to allow formation of the tumour spheroids. At 96 hours, the spheroids were imaged (labelled as “untreated” in the study) using a confocal microscope at 20× (Perkin Elmer Opera Phenix High Content Screening system) and then treated at 1 μM of the compounds (in DMSO). In total, 1,231 spheroids were generated and treated in duplicates at 96 hours with small molecule and kinase inhibitors from the Selleck Anti-cancer library and Selleck Kinase Inhibitor chemical library. The drug treated spheroids were imaged subsequently at 24, 48 and 72 hours after treatment.
Bright-field images of the 1,231 spheroids acquired at different time-points and z-planes were computationally segmented into proliferating (red), quiescent (green) and necrotic (yellow) zones through a method referred to as “Spheroid Peeling” (FIG. 5). Other imaging methods can also be used—Phase contrast imaging, electron microscopy, wide-field, dark-field, super-resolution microscopy, and many more.
Briefly, “Spheroid Peeling” involves repeatedly segmenting the spheroid image from the periphery to the core zone. The entire spheroid was first segmented as an object (hereby referred to as spheroid object) and cropped from the original well image (FIG. 6). An “inner core” was then identified from the spheroid object, hereby referred to as quiescent object. The proliferating zone was obtained by masking the quiescent object from the spheroid object. Similarly, the necrotic zone was identified as the “inner core” of the quiescent object, and the quiescent zone was obtained by masking the necrotic zone from the quiescent object. A number of image features were quantified from each of the proliferating, quiescent and necrotic zones, resulting in a total of 504 image descriptors for each spheroid. The “spheroid peeling” algorithm can be written in a number of languages or image analysis tool, such as Cell Profiler, MATLAB or ImageJ.
FIG. 19 is a flow diagram 700 showing a machine learning based training method in accordance with the present disclosure for generating a computational model (or learning model) of drug response in spheroids. Two sets of spheroids were generated for imaging and for viability measurement, respectively. The two sets of spheroids were treated with the same drugs. For feasibility testing, a training set of 1,231 spheroids 1902 was generated. At 72 hours after drug treatment, acquisition 1904 of bright-field images 1906 was obtained. As data preprocessing 708, “Spheroid Peeling” 1910 was applied to obtain, through image feature quantification 1912, 504 image descriptors from the Proliferating, Quiescent and Necrotic zones of each tumour spheroid, resulting in over ˜600K image descriptors 1916 in total.
The learning process generated a computational model 1922 that can be perceived as a complex multi-feature numerical quantification of the drug response of the spheroids. Generating the computational model includes one or more of training the computational model or determining parameters of the computational model. […]

[2] = system: HN120M PDX; assay: In vivo treatment of HN120M PDX-bearing mice; conditions: mice n=6, 5 mg kg^−1 i.p. once every 2 days
From the text: (§1) Generation and passaging of PDXs. Tumour samples were obtained from patients post-surgery after obtaining informed patient consent in accordance to SingHealth Centralized Institutional Review Board (CIRB: 2014/2093/B). Tumours were minced into 1 mm^3 fragments and suspended in a mixture of 5% Matrigel (Corning, cat. no. 354234) in DMEM/F12 (Thermo Fisher, cat. no. 10565-018). The tumour fragment mixtures were then implanted subcutaneously into the left and right flanks of 5-7 weeks old NSG (NOD.Cg-Prkdcscid II2rgtm1Wjl/SzJ) (Jackson Laboratory, stock no. 005557) mice, using 18-gauge needles. Tumours were excised and passaged when they reached 1.5 cm^3. […]
(§2) Gefitinib (Iressa) was prepared by dissolving a 250 mg clinical grade tablet (AstraZeneca) in sterile water containing 0.05% Tween-80 (Sigma-Aldrich, cat. no. P4780) to a concentration of 10 mg/mL and administered at a dosage of 25 mg/kg daily via oral gavage. […] The length and width of tumours were measured by caliper once every 2 days. […] The weight of tumour was not directly measured, but were estimated using volume where the density of tissue was assumed to be 1 g/cm^3. The ratio of the change in treated tumour volume (ΔT) to the average change in control tumour volume (ΔT/Average ΔC) at each time point was calculated as follows: […]

[3] = system: HN137P PDX; assay: In vivo treatment of HN137P PDX-bearing mice; conditions: male mice n=5, 2 mg kg^−1 i.p. once every 2 days
From the text: as §1, §2

[4] = system: HN137M PDX; assay: In vivo treatment of HN137M PDX-bearing mice; conditions: male mice n=5, 2 mg kg^−1 i.p. once every 2 days
From the text: as §1, §2

[5] = system: spheroids derived from a head and neck cancer patient; assay: Micrograph morphology of drug-treated patient-derived spheroids; assay type: cell-based, human; conditions: spheroids approximately 500 microns
From the text: All three patient-derived spheroids are of similar sizes of approximately 500 microns.
On the other hand, morphological-based methods primarily use the size/volume or shape of the spheroids.

COc1ncc(-c2ccc3nccc(-c4ccnnc4)c3c2)cc1NS(=O)(=O)c1ccc(F)cc1F [GSK2126458]
response of tumour spheroids over time (LaFOS time-course) [1]: increasing efficacy | inhibition at 1 µM ([1]; Homo sapiens, over the course of 72 hours, duplicate spheroids (R1 and R2), treated at 1 μM, read-out: inhibition rate (4-dimensional drug response of tumor spheroids)): 80%

CN1CC[C@H](c2c(O)cc(O)c3c(=O)cc(-c4ccccc4Cl)oc23)[C@H](O)C1 [Flavopiridol]
efficacy in in vivo model (PDX) [2]: already validated in in vivo models

COCCn1c2c([n+](Cc3cnccn3)c1C)C(=O)c1ccccc1C2=O [YM155]
anti-tumour effect in PDX (tumour volume vs vehicle) [3]: did not display significant sensitivity | anti-tumour effect in PDX (tumour volume vs vehicle) [4]: significant anti-tumour effect

Cn1c(=O)n(-c2ccc(C(C)(C)C#N)cc2)c2c3cc(-c4cnc5ccccc5c4)ccc3ncc21 [BEZ235]
response of tumour spheroids over time (LaFOS time-course) [1]: remain unchanged; also recorded: unresponsive

N.N.[Cl][Pt][Cl] [Cisplatin]
morphological structure of tumour spheroid ([5]; high concentration): enlarged core zone | morphological structure of tumour spheroid ([5]; low concentration): resembled that of the untreated spheroid

COc1cc(N2CCC(N3CCN(C)CC3)CC2)ccc1Nc1ncc(Cl)c(Nc2ccccc2S(=O)(=O)C(C)C)n1 [NVP-TAE684]
response of tumour spheroids over time (LaFOS time-course) [1]: increasing efficacy | inhibition rate (4-dimensional drug response of tumor spheroids) ([1]; over the course of 72 hours, duplicate spheroids (R1 and R2), treated at 1 μM): 60%
